Experimental data published in ChEMBL document CHEMBL3045804, “Synthesis and Herbicidal Activity of 2-Benzylamino-4-methyl-6-trifluoromethyl-1, 3, 5-triazune Derivatives” (J Pestic Sci, 1998).

Tests used:
Format in all cases: functional
Rotala indica [1] = assay: Herbicidal activity against Rotala indica assessed as killing at 800 g/10 acre measured after 3 weeks by pre-emergence/paddy application test
[2] = tested on: Schoenoplectiella juncoides; assay: Herbicidal activity against Schoenoplectiella juncoides assessed as killing at 800 g/10 acre measured after 3 weeks by pre-emergence/paddy application test
Pontederia vaginalis [3] = assay: Herbicidal activity against Monochoria vaginalis assessed as killing at 800 g/10 acre measured after 3 weeks by pre-emergence/paddy application test
Echinochloa oryzicola [4] = assay: Herbicidal activity against Echinochloa oryzicola assessed as killing at 800 g/10 acre measured after 3 weeks by pre-emergence/paddy application test
Chenopodium album [5] = assay: Herbicidal activity against Chenopodium album assessed as killing at 800 g/10 acre measured after 3 weeks by pre-emergence/field application test
Stellaria media [6] = assay: Herbicidal activity against Stellaria media assessed as killing at 800 g/10 acre measured after 3 weeks by pre-emergence/field application test
Digitaria ciliaris [7] = assay: Herbicidal activity against Digitaria ciliaris assessed as killing at 800 g/10 acre measured after 3 weeks by pre-emergence/field application test
Echinochloa crus-galli [8] = assay: Herbicidal activity against Echinochloa crus-galli (barnyard grass) assessed as killing at 800 g/10 acre measured after 3 weeks by pre-emergence/field application test
Chenopodium album [9] = assay: Herbicidal activity against Chenopodium album assessed as killing at 400 g/10 acre measured after 3 weeks by post-emergence/foliar application test
Digitaria ciliaris [10] = assay: Herbicidal activity against Digitaria ciliaris assessed as killing at 400 g/10 acre measured after 3 weeks by post-emergence/foliar application test
Echinochloa crus-galli [11] = assay: Herbicidal activity against Echinochloa crus-galli (barnyard grass) assessed as killing at 400 g/10 acre measured after 3 weeks by post-emergence/foliar application test
[12] = tested on: Schoenoplectiella juncoides; assay: Herbicidal activity against Schoenoplectiella juncoides assessed as killing at 100 g/10 acre measured after 3 weeks by pre-emergence/paddy application test
Pontederia vaginalis [13] = assay: Herbicidal activity against Monochoria vaginalis assessed as killing at 100 g/10 acre measured after 3 weeks by pre-emergence/paddy application test
Echinochloa oryzicola [14] = assay: Herbicidal activity against Echinochloa oryzicola assessed as killing at 100 g/10 acre measured after 3 weeks by pre-emergence/paddy application test
Stellaria media [15] = assay: Herbicidal activity against Stellaria media assessed as killing at 100 g/10 acre measured after 3 weeks by pre-emergence/field application test
Digitaria ciliaris [16] = assay: Herbicidal activity against Digitaria ciliaris assessed as killing at 100 g/10 acre measured after 3 weeks by pre-emergence/field application test
Echinochloa crus-galli [17] = assay: Herbicidal activity against Echinochloa crus-galli (barnyard grass) assessed as killing at 100 g/10 acre measured after 3 weeks by pre-emergence/field application test
Rotala indica [18] = assay: Herbicidal activity against Rotala indica assessed as killing at 100 g/10 acre measured after 3 weeks by pre-emergence/paddy application test
Chenopodium album [19] = assay: Herbicidal activity against Chenopodium album assessed as killing at 100 g/10 acre measured after 3 weeks by post-emergence/foliar application test
Stellaria media [20] = assay: Herbicidal activity against Stellaria media assessed as killing at 100 g/10 acre measured after 3 weeks by post-emergence/foliar application test
Digitaria ciliaris [21] = assay: Herbicidal activity against Digitaria ciliaris assessed as killing at 100 g/10 acre measured after 3 weeks by post-emergence/foliar application test
Echinochloa crus-galli [22] = assay: Herbicidal activity against Echinochloa crus-galli (barnyard grass) assessed as killing at 100 g/10 acre measured after 3 weeks by post-emergence/foliar application test
Chenopodium album [23] = assay: Herbicidal activity against Chenopodium album assessed as killing at 100 g/10 acre measured after 3 weeks by pre-emergence/field application test
Stellaria media [24] = assay: Herbicidal activity against Stellaria media assessed as killing at 400 g/10 acre measured after 3 weeks by post-emergence/foliar application test

Structure (SMILES) | Activity (Rotala indica [1]) [%] | Activity [2] [%] | Activity (Pontederia vaginalis [3]) [%] | Activity (Echinochloa oryzicola [4]) [%] | Activity (Chenopodium album [5]) [%] | Activity (Stellaria media [6]) [%] | Activity (Digitaria ciliaris [7]) [%] | Activity (Echinochloa crus-galli [8]) [%] | Activity (Chenopodium album [9]) [%] | Activity (Digitaria ciliaris [10]) [%] | Activity (Echinochloa crus-galli [11]) [%] | Activity [12] [%] | Activity (Pontederia vaginalis [13]) [%] | Activity (Echinochloa oryzicola [14]) [%] | Activity (Digitaria ciliaris [16]) [%] | Activity (Echinochloa crus-galli [17]) [%] | Activity (Stellaria media [20]) [%] | Activity (Digitaria ciliaris [21]) [%] | Activity (Echinochloa crus-galli [22]) [%] | Activity (Chenopodium album [23]) [%] | other results
Cc1nc(NCCCc2ccccc2)nc(C(F)(F)F)n1 | 51 | 1 | 51 | 1 | 76 | 100 | 100 | 76 | 100 | 76 | 91 |  |  |  |  |  |  |  |  |  | 
Cc1nc(NCCc2ccccc2)nc(C(F)(F)F)n1 | 91 | 26 | 76 | 26 | 91 |  | 76 | 51 | 91 | 0 | 0 |  |  |  |  |  |  |  |  |  | 
Cc1nc(NCc2ccc(Br)cc2)nc(C(F)(F)F)n1 |  |  |  |  |  |  |  |  |  |  |  | 76 | 91 | 51 | 91 | 76 | 100 | 100 | 26 | 100 | Activity (Stellaria media [15]): 91%; Activity (Rotala indica [18]): 100%; Activity (Chenopodium album [19]): 100%
Cc1nc(NCc2ccc(C(C)(C)C)cc2)nc(C(F)(F)F)n1 |  |  |  |  |  |  |  |  |  |  |  | 1 | 26 | 26 | 76 | 26 | 100 | 0 | 26 | 91 | Activity (Stellaria media [15]): 91%; Activity (Rotala indica [18]): 91%; Activity (Chenopodium album [19]): 76%
Cc1nc(NCc2ccccc2Cl)nc(C(F)(F)F)n1 |  |  |  |  |  |  |  |  |  |  |  | 1 | 26 | 0 | 1 | 1 | 76 | 0 | 0 | 26 | Activity (Stellaria media [15]): 76%; Activity (Rotala indica [18]): 76%; Activity (Chenopodium album [19]): 26%
Cc1nc(NCc2cccc(Cl)c2)nc(C(F)(F)F)n1 |  |  |  |  |  |  |  |  |  |  |  | 51 | 51 | 51 | 51 | 1 | 100 | 91 | 51 | 76 | Activity (Rotala indica [18]): 100%; Activity (Chenopodium album [19]): 100%
Cc1nc(NCc2ccc(Cl)cc2)nc(C(F)(F)F)n1 |  |  |  |  |  |  |  |  |  |  |  | 76 | 100 | 76 | 91 | 51 | 100 | 76 | 26 | 100 | Activity (Stellaria media [15]): 91%; Activity (Rotala indica [18]): 91%; Activity (Chenopodium album [19]): 100%
Cc1nc(NCc2ccc(F)cc2)nc(C(F)(F)F)n1 |  |  |  |  |  |  |  |  |  |  |  | 51 | 91 | 76 | 76 | 76 | 100 | 91 | 51 | 91 | Activity (Stellaria media [15]): 100%; Activity (Rotala indica [18]): 100%
COc1ccc(CNc2nc(C)nc(C(F)(F)F)n2)cc1 |  |  |  |  |  |  |  |  |  |  |  | 1 | 51 | 26 | 0 | 76 | 100 | 26 | 26 | 76 | Activity (Stellaria media [15]): 91%; Activity (Rotala indica [18]): 76%; Activity (Chenopodium album [19]): 100%
Cc1ccc(CNc2nc(C)nc(C(F)(F)F)n2)cc1 |  |  |  |  |  |  |  |  |  |  |  | 0 | 26 | 51 | 1 | 76 | 100 | 0 | 1 | 91 | Activity (Stellaria media [15]): 91%; Activity (Rotala indica [18]): 76%; Activity (Chenopodium album [19]): 91%
Cc1nc(NCc2ccc(C(F)(F)F)cc2)nc(C(F)(F)F)n1 |  |  |  |  |  |  |  |  |  |  |  | 51 | 76 | 51 | 100 | 76 | 100 | 100 | 1 | 91 | Activity (Stellaria media [15]): 100%; Activity (Rotala indica [18]): 91%; Activity (Chenopodium album [19]): 100%
c1ccc(CNc2ncncn2)cc1 | 0 | 0 | 0 | 0 | 0 | 0 | 0 | 0 | 0 | 0 | 0 |  |  |  |  |  |  |  |  |  | Activity (Stellaria media [24]): 0%
Cc1ncnc(NCc2ccccc2)n1 | 0 | 0 | 0 | 51 | 0 | 0 | 0 | 0 | 0 | 0 | 0 |  |  |  |  |  |  |  |  |  | Activity (Stellaria media [24]): 0%
Cc1nc(C)nc(NCc2ccccc2)n1 | 1 | 0 | 100 | 51 | 0 | 0 | 0 | 0 | 51 | 1 | 1 |  |  |  |  |  |  |  |  |  | 
CCc1nc(C)nc(NCc2ccccc2)n1 | 51 | 1 | 51 | 76 | 51 |  | 0 | 0 |  |  |  |  |  |  |  |  |  |  |  |  | 
CCCc1nc(C)nc(NCc2ccccc2)n1 | 26 | 1 | 26 | 26 | 0 | 0 | 0 | 0 | 91 | 1 | 1 |  |  |  |  |  |  |  |  |  | 
Cc1nc(NCc2ccccc2)nc(-c2ccccc2)n1 | 0 | 0 | 0 | 0 | 0 | 0 | 0 | 0 | 0 | 0 | 0 |  |  |  |  |  |  |  |  |  | Activity (Stellaria media [24]): 0%
Cc1nc(NCc2ccccc2)nc(C(F)(F)F)n1 | 91 | 76 | 100 | 76 |  | 100 | 100 | 100 | 100 | 76 | 51 |  |  |  |  |  |  |  |  |  | 
CCc1nc(NCc2ccccc2)nc(C(F)(F)F)n1 | 91 | 100 | 100 | 91 |  | 100 | 100 | 51 | 51 | 1 | 1 |  |  |  |  |  |  |  |  |  | 
CC(C)c1nc(NCc2ccccc2)nc(C(F)(F)F)n1 | 91 | 100 | 100 | 100 | 76 | 26 | 76 | 76 | 0 | 0 | 0 |  |  |  |  |  |  |  |  |  | Activity (Stellaria media [24]): 0%
Cc1nc(NCc2ccccc2)nc(C(Cl)(Cl)Cl)n1 | 91 | 51 | 100 | 76 | 0 | 0 | 0 | 0 | 0 | 0 | 0 |  |  |  |  |  |  |  |  |  | Activity (Stellaria media [24]): 0%
CCNc1nc(Cl)nc(NC(C)C)n1 [ATRAZINE] |  |  |  |  |  |  |  |  |  |  |  |  |  |  |  |  | 100 | 0 | 26 |  | Activity (Chenopodium album [19]): 100%
CCNc1nc(Cl)nc(NCC)n1 [SIMAZINE] |  |  |  |  |  |  |  |  |  |  |  |  |  |  | 51 | 26 |  |  |  | 91 | Activity (Stellaria media [15]): 91%
